This is an account of results in patent US20230346820A1, “METHODS AND COMPOSITIONS FOR THE TREATMENT OF SARS-COV-2” (priority 2020, published 2023).

Read-outs that look alike come from different tables or passages of the source.

For series [1], the system named is SARS-CoV-2. The following applies: Table 4.
In series [2] the test system is SARS-CoV-2.
A short description of series [3]: in vitro. The note with it: human, HeLa-ACE2 Uninfected Tox CC50 [μM].
Series [4] is described as follows: in vitro. The note with it: human.
For series [5], the system named is SARS-CoV-2. Nature of the series: microbe, parasite or virus in culture. The following applies: Severe acute respiratory syndrome coronavirus 2, Calu-3, 48 h, read-out: Calu-3 CoV-2 EC50 [μM].
Series [6] relates to SARS-CoV-2. Nature of the series: microbe, parasite or virus in culture. The following applies: Severe acute respiratory syndrome coronavirus 2, HeLa-ACE2, read-out: HeLa-ACE2 CoV-2 EC50 [μM], Table 4; aggregated data, Geomean, n = 3.
Setting [7] is: Table 4, aggregated data, Geomean, n = 3.

Turning to `O=C(Nc1ccc(Cl)c(S(=O)(=O)N2CCNCC2)c1O)Nc1cccc(F)c1Cl` [Elubrixitosylate], the “HeLa-ACE2 SI CC50/CoV-2 EC50” value in series [1] was found to be 4.35. For the same compound, in series [2] (Table 4), the “Calu3 SI CC50/CoV-2 EC50” value is on record as above 4.28. The CC50 in series [3] (setting [7]) is above 39.8 µM; in series [4], above 29.6 µM. The EC50 in series [5] was 6.91 µM.

On to `CC[C@@H]1/C=C/C=C/C[C@H](C)[C@@H](O)[C@](C)(O)C(=O)[C@H](C)[C@@H](O)[C@H](C)C(=O)[C@H](C)[C@@H](O)[C@H](C)/C=C/C(=O)O[C@H]2[C@@H](C)[C@@H](CC1)O[C@@]1(CC[C@@H](C)[C@@H](C[C@H](C)O)O1)[C@@H]2C` [OLIGOMYCINA], for which the “Calu3 SI CC50/CoV-2 EC50” value in series [2] (Table 4) was above 4000. The values for the CC50 in series [3] (setting [7]) and in series [4] were 36 µM and above 29.9 µM, respectively. Further, the values for the EC50 in series [6] and in series [5] were above 9.59 µM and 0.007 µM, respectively.

Turning to `NC(N)=Nc1ncc(Cl)c2ccc(-c3cccc(C(=O)O)c3)cc12` [UK-356202], the “Calu3 SI CC50/CoV-2 EC50” value in series [2] (Table 4) is on record as above 15. The CC50 was above 39.8 µM in series [3] (setting [7]) and above 29.9 µM in series [4]. Moreover, the EC50 in series [5] came out at 1.92 µM.

Turning to `CC/C(=C(/c1ccc(/C=C/C(=O)O)cc1)c1ccc2[nH]ncc2c1)c1ccc(F)cc1Cl` [ARN-810], the “Calu3 SI CC50/CoV-2 EC50” value in series [2] (Table 4) is reported as 21.60. Besides, the values for the CC50 in series [3] (setting [7]) and in series [4] were 11 µM and 23.8 µM, respectively. Further, the concentration for a half-maximal effect (EC50) in series [5] stood at 1.1 µM.

For `CCc1ccc(C2=CC(C)(C)Sc3ccc(C#Cc4ccc(C(=O)O)cc4)cc32)cc1` [AGN-194310], in series [2], the “Calu3 SI CC50/CoV-2 EC50” value is on record as above 50. Moreover, the CC50 is above 39.8 µM in series [3] and above 29.9 µM in series [4]. For the same compound, the EC50 in series [5] worked out at 0.597 µM.

For the compound `CC[C@@H]1/C=C/C=C/C[C@H](C)[C@@H](O)[C@](C)(O)C(=O)[C@H](C)[C@@H](O)[C@H](C)C(=O)[C@H](C)[C@@H](O)[C@H](C)/C=C/C(=O)O[C@H]2[C@@H](C)[C@@H](CC1)O[C@]1(O[C@H](C[C@H](C)O)[C@H](C)CC1=O)[C@@H]2C` [Oligomycin B], in series [2] (Table 4), the “Calu3 SI CC50/CoV-2 EC50” value came out at 4539.49. The CC50 at 48 h in series [4] turned out to be 24.5 µM. In addition, the EC50 in series [5] was 0.005 µM.

For the compound `N=C(N)Nc1ccc(C(=O)Oc2ccc(S(N)(=O)=O)cc2)cc1` [Ono-3307], the “Calu3 SI CC50/CoV-2 EC50” value in series [2] (Table 4) is recorded as above 16. The CC50 in series [3] (setting [7]) is above 39.8 µM; in series [4], above 29.9 µM. Further, the 50% effective concentration (EC50) in series [5] stood at 1.6 µM.

`O[C@@H]1CO[C@H]2[C@@H]1OC[C@H]2Oc1nc2nc(-c3ccc(-c4ccccc4)cc3)c(Cl)cc2[nH]1` [MK-8722]: the “Calu3 SI CC50/CoV-2 EC50” value in series [2] (Table 4) is on record as above 10. Further, the results for the CC50 in series [3] (setting [7]) and in series [4] were 37.4 µM and above 29.9 µM, respectively. The EC50 in series [5] came to 2.73 µM.

Regarding `O=c1[nH]ccc2cc(OC3CCNCC3)ccc12` [SAR-407899], the “HeLa-ACE2 SI CC50/CoV-2 EC50” value in series [1] came out at 4.03. Also, the “Calu3 SI CC50/CoV-2 EC50” value in series [2] (Table 4) is above 7.77. Besides, the CC50 in series [3] (setting [7]) was above 38.7 µM; in series [4], above 29.9 µM. Also, the EC50 in series [5] is above 3.85 µM.

For `CC(C)(C)c1ccc(CSc2cnn(C(C)(C)C)c(=O)c2Cl)cc1` [PYRIDABEN], in series [2] (Table 4), the “Calu3 SI CC50/CoV-2 EC50” value was 43.89. The CC50 is above 39.8 µM in series [3] (setting [7]) and 8.99 µM in series [4]. Moreover, the EC50 in series [5] came to 0.205 µM.

`CC(N)c1ccc(C(=O)Nc2ccncc2)cc1-c1ccc(F)cc1` (stereo not shown) [AMA-0076]: the “Calu3 SI CC50/CoV-2 EC50” value in series [2] (Table 4) was above 16. Besides, the CC50 in series [3] (setting [7]) is 35.8 µM; in series [4], above 29.9 µM. The EC50 was above 9.59 µM in series [6] and 3.87 µM in series [5].

Regarding `COC(=O)[C@]12CCC(C)(C)C[C@H]1[C@H]1C(=O)C=C3[C@@]4(C)C=C(C#N)C(=O)C(C)(C)[C@@H]4CC[C@@]3(C)[C@]1(C)CC2` [Bardoxolone Methyl], the “HeLa-ACE2 SI CC50/CoV-2 EC50” value in series [1] turned out to be 5.73. Moreover, the “Calu3 SI CC50/CoV-2 EC50” value in series [2] (Table 4) is recorded as 38.47. Moreover, the results for the CC50 in series [3] (setting [7]) and in series [4] were 3.1 µM and 3.06 µM, respectively.

For `CC(C)(O)c1ccccc1-c1ccc2[nH]c(/C=C/c3ccc(C(F)(F)F)cc3)nc2c1` [Mavatrep], in series [2] (Table 4), the “Calu3 SI CC50/CoV-2 EC50” value amounted to 5.50. Besides, the figures for the CC50 in series [3] (setting [7]) and in series [4] were 22.5 µM and 14.6 µM, respectively. The EC50 is above 9.59 µM in series [6] and 2.66 µM in series [5].

Regarding `O=C(c1ccccc1)c1cccc(NC(=O)c2ccn3c2CSC3c2cccnc2)c1` (stereo not shown) [TULOPAFANT], the “Calu3 SI CC50/CoV-2 EC50” value in series [2] (Table 4) is on record as 5.01. Also, the CC50 is 36.6 µM in series [3] (setting [7]) and 14.6 µM in series [4]. Further, the EC50 is above 9.59 µM in series [6] and 2.92 µM in series [5].
